Experimental data reported in patent publication US7408060B2, “Nonsteroidal progesterone receptor modulators” (Schering AG, priority 2005, dated 2008).

Assays:
[1] = target: T1, Progesterone Receptor PR-B (Homo sapiens, UniProt P06401); experiment: Agonism of Progesterone Receptor PR-B, transactivation assay; format: cell-based; settings: PR-B transactivation assay as in Fuhrmann et al.
T1 construct: expressed in transfected cells; From own knowledge of the cited Fuhrmann et al. 2000: SK-N-MC cells stably transfected with PR-B and an MMTV-luciferase reporter
T1 sequence (P06401 1-933): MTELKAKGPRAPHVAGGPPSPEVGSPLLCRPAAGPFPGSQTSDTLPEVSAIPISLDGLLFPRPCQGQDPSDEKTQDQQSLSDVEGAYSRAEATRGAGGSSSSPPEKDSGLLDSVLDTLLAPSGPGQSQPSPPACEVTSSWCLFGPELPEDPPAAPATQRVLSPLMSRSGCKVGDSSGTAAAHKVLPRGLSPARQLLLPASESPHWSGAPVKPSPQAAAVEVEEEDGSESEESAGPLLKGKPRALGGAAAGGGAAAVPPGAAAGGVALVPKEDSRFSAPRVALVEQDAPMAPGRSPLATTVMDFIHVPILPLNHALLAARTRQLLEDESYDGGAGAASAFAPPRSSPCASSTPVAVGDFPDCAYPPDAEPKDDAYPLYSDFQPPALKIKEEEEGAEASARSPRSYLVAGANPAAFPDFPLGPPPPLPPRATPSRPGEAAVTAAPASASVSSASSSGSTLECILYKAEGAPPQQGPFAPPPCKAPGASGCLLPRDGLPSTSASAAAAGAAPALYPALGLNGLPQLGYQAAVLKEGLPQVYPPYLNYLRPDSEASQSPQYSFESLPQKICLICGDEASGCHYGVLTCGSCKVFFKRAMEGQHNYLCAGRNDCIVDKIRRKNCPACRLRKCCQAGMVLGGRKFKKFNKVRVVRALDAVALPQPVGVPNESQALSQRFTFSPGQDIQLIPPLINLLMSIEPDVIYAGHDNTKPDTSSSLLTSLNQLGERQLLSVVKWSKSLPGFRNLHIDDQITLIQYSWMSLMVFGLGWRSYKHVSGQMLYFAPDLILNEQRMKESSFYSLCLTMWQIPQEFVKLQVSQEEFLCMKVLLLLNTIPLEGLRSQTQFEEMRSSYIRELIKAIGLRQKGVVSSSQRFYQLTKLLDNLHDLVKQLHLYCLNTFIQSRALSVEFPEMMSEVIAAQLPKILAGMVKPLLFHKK
Description: Agonism of Progesterone Receptor PR-B
The transactivation assay is performed as described in Fuhrmann et al. (Fuhrmann, U.; Hess-Stump, H.; Cleve, A.; Neef, G.; Schwede, W.; Hoffmann, J.; Fritzemeier, K.-H., Chwalisz, K.; Journal of Medicinal Chem., 43, 26, 2000, 5010-5016).

[2] = target: T1, Progesterone Receptor PR-B; experiment: Antagonism of Progesterone Receptor PR-B, transactivation assay; format: cell-based; settings: PR-B transactivation assay as in WO 02/054064; for IC50: read-out: Antagonistic activity IC50
Description: Antagonism of Progesterone Receptor PR-B
The transactivation assay is performed as described in WO 02/054064.

Row | Agonistic activity Efficacy [1] [%] | EC50 ([1]; read-out: Agonistic activity EC50) [nM] | Antagonistic activity Efficacy [2] [%] | IC50 [2] [nM] | SMILES
1 | 11 | 2 | 82 | 4 | O=C1OCc2cc(NC(=O)C(O)(C#Cc3ccc(O)cc3)CC3(c4cc(C(F)(F)F)ccc4F)CC3)ccc21 (racemic) [Example 7, rac-5-{2-Hydroxy-2-[(4-hydroxyphenyl)ethinyl]-3-[1-(2-fluoro-5-trifluoromethylphenyl)-cyclopropyl]-propionylamino}phthalide]
2 | 3 |  | 96 | 3 | CCCC#CC(O)(CC1(c2cc(C(F)(F)F)ccc2F)CC1)C(=O)Nc1ccc2c(c1)COC2=O (racemic) [Example 9, rac-5-{2-Hydroxy-3-[1-(2-fluoro-5-trifluoromethylphenyl)-cyclopropyl]-2-(pentin-1-yl)-propionylamino}phthalide]
3 | 7 |  | 92 | 3 | O=C1OCc2cc(NC(=O)C(O)(C#CCO)CC3(c4cc(C(F)(F)F)ccc4F)CC3)ccc21 (racemic) [Example 13, rac-5-{2-Hydroxy-3-[1-(2-fluoro-5-trifluoromethylphenyl)-cyclopropyl]-2-[(3-hydroxy)propin-1-yl]-propionylamino}phthalide]
4 | 2 |  | 97 | 0.4 | O=C1OCc2cc(NC(=O)C(O)(C#Cc3ccccc3)CC3(c4cc(C(F)(F)F)ccc4F)CC3)ccc21 (single isomer, unassigned; (-)) [Example 3b, (−)-5-{2-Hydroxy-3-[1-(2-fluoro-5-trifluoromethylphenyl)-cyclopropyl]-2-(phenylethinyl)-propionylamino}phthalide]
